Assays:
HBV Cp = assay: Capsid assembly assay (fluorescence quenching); details: 10 μM compound, control reactions with no drug show 25±5% assembly
AD38 cells = assay: Activity of test compounds on viral production from AD38 cells (qPCR viral load); format: cell-based, HBV; parameters: key: (+) depicting meets criteria for significant activity; (++) depicting exceeds criteria; details: 5 days, supernatant qPCR
Procedure: AD38 cells grown in a 175 cm flash with Growth Medium (DMEM/F12 (1:1) (cat#SH30023.01, Hyclone, 1× Pen/step (cat#: 30-002-CL, Mediatech, Inc), 10% FBS (cat#: 101, Tissue Culture Biologics), 250 μg/mL G418 (cat#: 30-234-CR, Mediatech, Inc), 1 μg/mL Tetracycline (cat#: T3325, Teknova)) were detached with 0.25% trypsin. Tetracycline-free treatment medium (15 mL DMEM/F12 (1:1) (cat#SH30023.01, Hyclone, 1× Pen/step (cat#: 30-002-CL, Mediatech, Inc), with 2% FBS, Tet-system approved (cat#: 631106, Clontech) were then added to mix and spun at 1300 rpm for 5 min. Pelleted cells were then re-suspended/washed with 50 mL of 1×PBS 2 times and 10 mL treatment medium one time. AD38 cells were then re-suspended with 10 mL of treatment medium and counted. Wells of a collagen coated 96-well NUNC microtiter plate were seeded at 50,000/well in 180 μL of treatment medium, and 20 μL of either 10% DMSO (Control) or a 10× solution of test compound in 10% DMSO in treatment media was added for as final compound concentration 1, 3, or 10 μM (1.0% final [DMSO]) and plates were incubated for 5 days at 37° C.
Subsequently viral load production was assayed by quantitative PCR of the core sequence. Briefly, 5 μL of clarified supernatant was added to a PCR reaction mixture that contained forward primers HBV-f 5′-[…]-3′, Reverse primers HBV-r 5′-[…]-3′ and Fluorescent TaqMan™ Probes HBV-probe 5′-FAM/[…]/ZEN/[…]/31ABkFQ-3′ in Quanta Biosciences PerfeCTa® qPCR Toughmix®, and was subsequently on an Applied Biosystems VIIA7 in a final volume of 20 μL. The PCR mixture was incubated at 45° C. for 5 minutes, then 95° C. for 10 min, followed by 40 cycles of 10 seconds at 95° C. and 20 seconds at 60° C. Viral load was quantitated against known standards by using ViiA™ 7 Software. Viral load in the supernatant from wells with treated cells were compared against viral load in supernatant from DMSO control wells (≥3 per plate). In Table 4, concentrations of test compound causing reductions in viral load greater than at least 3 standard deviations from the DMSO controls across all plates were considered active, with (+) depicting meets criteria for significant activity, and (++) depicting exceeds criteria.

Compound | % Capsid formation at 24 h (10 μM) (HBV Cp) [%] | reduction in viral load vs DMSO controls (AD38 cells; test concentration 3 μM) | reduction in viral load vs DMSO controls (AD38 cells; test concentration 10 μM) | reduction in viral load vs DMSO controls (AD38 cells; test concentration 1 μM)
Cc1ccc(Nc2cc(C)nc(N3CCN(S(=O)(=O)c4ccc(C)cc4)CC3)n2)cc1 [compound 1] | 95 | ++ | ++ | 
Cc1ccc(Nc2cc(C)nc(N3CCN(S(=O)(=O)c4ccc(OC(F)(F)F)cc4)CC3)n2)cc1 [compound 2] | 83 |  |  | 
Cc1ccc(Nc2cc(C)nc(N3CCN(S(=O)(=O)c4ccc(Cl)cc4)CC3)n2)cc1 [compound 3] | 94 | ++ | ++ | ++
Cc1ccc(Nc2cc(C)nc(N3CCN(S(=O)(=O)c4ccc(O)cc4)CC3)n2)cc1 [compound 4] | 99 |  |  | 
CCc1ccc(S(=O)(=O)N2CCN(c3nc(C)cc(Nc4ccc(C)cc4)n3)CC2)cc1 [compound 5] | 91 | ++ | ++ | 
Cc1ccc(Nc2cc(C)nc(N3CCN(S(=O)(=O)c4ccc(C(C)C)cc4)CC3)n2)cc1 [compound 6] | 92 | ++ | ++ | 
Cc1ccc(Nc2cc(C)nc(N3CCN(S(=O)(=O)c4cccc(C)c4)CC3)n2)cc1 [compound 7] | 79 | ++ | ++ | +
CCOc1ccc(S(=O)(=O)N2CCN(c3nc(C)cc(Nc4ccc(C)cc4)n3)CC2)cc1 [compound 8] | 98 | ++ | ++ | 
CCCCOc1ccc(S(=O)(=O)N2CCN(c3nc(C)cc(Nc4ccc(C)cc4)n3)CC2)cc1 [compound 9] | 93 |  |  | 
CC(=O)Nc1ccc(S(=O)(=O)N2CCN(c3nc(C)cc(Nc4ccc(C)cc4)n3)CC2)cc1 [compound 10] | 96 | ++ | ++ | +
COc1ccc(S(=O)(=O)N2CCN(c3nc(C)cc(Nc4ccc(C)cc4)n3)CC2)cc1 [compound 11] | 89 | ++ | ++ | 
Cc1ccc(Nc2cc(C)nc(N3CCN(S(=O)(=O)c4ccccc4)CC3)n2)cc1 [compound 12] | 73 |  |  | 
Cc1ccc(Nc2cc(C)nc(N3CCN(S(=O)(=O)c4ccc(F)cc4)CC3)n2)cc1 [compound 13] | 60 |  |  | 
Cc1ccc(Nc2cc(C)nc(N3CCN(S(=O)(=O)c4ccccc4F)CC3)n2)cc1 [compound 14] | 67 |  |  | 
Cc1ccc(Nc2cc(C)nc(N3CCN(S(=O)(=O)c4cccc(F)c4)CC3)n2)cc1 [compound 15] | 76 | ++ | ++ | 
COc1cccc(S(=O)(=O)N2CCN(c3nc(C)cc(Nc4ccc(C)cc4)n3)CC2)c1 [compound 16] | 95 | ++ | ++ | ++
Cc1ccc(Nc2cc(C)nc(N3CCN(S(=O)(=O)c4ccc5ccccc5c4)CC3)n2)cc1 [compound 17] | 70 |  |  | 
COc1ccc(S(=O)(=O)N2CCN(c3nc(C)cc(Nc4ccc(C)cc4)n3)CC2)cc1OC [compound 18] | 71 | ++ | ++ | 
Cc1ccc(Nc2cc(C)nc(N3CCN(S(=O)(=O)c4ccc5cc(N(C)C)ccc5c4)CC3)n2)cc1 [compound 19] | 83 |  |  | 
CCCCc1ccc(S(=O)(=O)N2CCN(c3nc(C)cc(Nc4ccc(C)cc4)n3)CC2)cc1 [compound 20] | 90 |  |  | 
CC(C)c1cc(Nc2ccc(F)cc2)nc(N2CCN(S(=O)(=O)c3ccccc3)CC2)n1 [compound 21] | 71 |  |  | 

Compound | % Capsid formation at 24 h (10 μM) (HBV Cp) [%] | reduction in viral load vs DMSO controls (AD38 cells; test concentration 3 μM) | reduction in viral load vs DMSO controls (AD38 cells; test concentration 10 μM) | reduction in viral load vs DMSO controls (AD38 cells; test concentration 1 μM)
Cc1ccc(S(=O)(=O)N2CCN(c3nc(Nc4ccc(F)cc4)cc(C(C)C)n3)CC2)cc1 [compound 22] | 80 |  |  | 
Cc1ccc(Nc2cc(C)nc(N3CCN(S(=O)(=O)c4ccc(N(C)C)cc4)CC3)n2)cc1 [compound 23] | 88 | ++ | ++ | +
CNc1ccc(S(=O)(=O)N2CCN(c3nc(C)cc(Nc4ccc(C)cc4)n3)CC2)cc1 [compound 24] | 96 | ++ | ++ | 
Cc1ccc(Nc2cc(C)nc(N3CCN(S(=O)(=O)c4ccc(N)cc4)CC3)n2)cc1 [compound 26] | 96 | ++ | ++ | 
Cc1ccc(Nc2cc(C)nc(N3CCN(S(=O)(=O)c4ccc(OC(C)(C)C)cc4)CC3)n2)cc1 [compound 27] | 84 | ++ | ++ | 
Cc1ccc(Nc2cc(C)nc(N3CCN(S(=O)(=O)c4ccc(OC(F)F)cc4)CC3)n2)cc1 [compound 28] | 96 | ++ | ++ | ++
CCc1cc(Nc2ccc(C)cc2)nc(N2CCN(S(=O)(=O)c3ccc(OC)cc3)CC2)n1 [compound 29] | 94 | ++ | ++ | ++
COc1ccc(S(=O)(=O)N2CCN(c3nc(Nc4ccc(C)cc4)cc(C(C)C)n3)CC2)cc1 [compound 30] | 87 |  |  | 
COc1ccc(S(=O)(=O)N2CCN(c3nc(Nc4ccc(C)cc4)cc(C(C)(C)C)n3)CC2)cc1 [compound 31] | 87 | ++ | ++ | 
CCCc1cc(Nc2ccc(C)cc2)nc(N2CCN(S(=O)(=O)c3ccc(OC)cc3)CC2)n1 [compound 32] | 69 | ++ | ++ | ++
COc1ccc(S(=O)(=O)N2CCN(c3nc(C)cc(Nc4ccc(Br)cc4)n3)CC2)cc1 [compound 34] | 96 | ++ | ++ | ++
CCc1ccc(Nc2cc(C)nc(N3CCN(S(=O)(=O)c4ccc(OC)cc4)CC3)n2)cc1 [compound 35] | 81 | ++ | ++ | ++
COc1ccc(S(=O)(=O)N2CCN(c3nc(C)cc(Nc4ccc(OC(F)(F)F)cc4)n3)CC2)cc1 [compound 36] | 78 |  |  | 
COc1ccc(S(=O)(=O)N2CCN(c3nc(C)cc(Nc4ccc(Cl)cc4)n3)CC2)cc1 [compound 37] | 93 | ++ | ++ | ++
COc1ccc(S(=O)(=O)N2CCN(c3nc(C)cc(Nc4ccc(F)cc4)n3)CC2)cc1 [compound 38] | 75 |  |  | 
COc1ccc(S(=O)(=O)N2CCN(c3nc(C)cc(Nc4ccccc4)n3)CC2)cc1 [compound 39] | 56 |  |  | 
COc1ccc(Nc2cc(C)nc(N3CCN(S(=O)(=O)c4ccc(OC)cc4)CC3)n2)cc1 [compound 41] | 84 |  |  | 
COc1ccc(Nc2cc(C)nc(N3CCN(S(=O)(=O)c4ccc(OC)cc4)CC3)n2)cc1 [compound 43] | 97 |  |  | 
COc1cccc(S(=O)(=O)N2CCN(c3nc(C)cc(Nc4ccc(F)cc4)n3)CC2)c1 [compound 44] | 92 |  |  | 
COc1ccc(Nc2cc(C)nc(N3CCN(S(=O)(=O)c4ccc(OC)c(OC)c4)CC3)n2)cc1 [compound 45] | 87 |  |  | 
